What is called Vd is a proportionality between amount in the body and measured concentration, not a real space. A low value points to confinement near the circulation. The term clearance denotes the volume of plasma or blood freed of the substance per unit of time. A higher clearance goes with efficient removal. By half-life is commonly meant the time needed for the level to fall by half in the phase considered.

The structures appear in SMILES notation. Starred links: 1 amine or outer side, 2 acyl side, 3 side chain; linkers in the order of their positions; H or OH if unused. Positions of bridges follow the written chain, without caps; N, C: chain ends. Non-standard residues stand in square brackets, D forms with d. Residues, ends and D or L forms follow the SMILES beside them. Groups on a side chain read outwards from the residue. *: point of attachment. Docosanoyl = CCCCCCCCCCCCCCCCCCCCCC(=O)*; γGlu = O=C(O)[C@H](CCC(=O)[*:2])N[*:1]; Palmitoyl = CCCCCCCCCCCCCCCC(=O)*

This series can be described thus: in vivo. Set-up: species or system Sprague-Dawley rats. Conditions: rat, iv, 0.033 mg/kg. As to the method:
Peptides were dissolved in sterile saline and administered as a 1-hour intravenous infusion to non-fasted male Sprague-Dawley rats (n=3 per group) via femoral vein cannula at a final dose of 0.033 mg/kg. […] Blood samples (approximately 250 μL) were collected for pharmacokinetic analysis via a jugular vein cannula at 0.25, 0.5, 0.75, 1, 1.17, 1.33, 1.5, 2, 4, 6, 8, 24, 30 and 48 hr post-start of infusion into microtainer tubes containing K2EDTA as anticoagulant and 25 μL of a protease inhibitor cocktail. Plasma was prepared by centrifugation and stored at −80° C. until analysis. The results of this analysis are shown in Table 9 and few exemplars in FIGS. 3a-3b. […]
A 60 μL aliquot of each plasma sample was placed into to a 96-well plate. To each well was added 6 μL of 0.5% Tween-20. Plates were then vortexed mixed for 10 minutes at 1200 rpm before 180 μL of 0.1% TFA in 2:1 ethanol:acetonitrile containing an appropriate internal standard was added to each well. Plates were vortex mixed for 5 min at 1300 rpm, and then centrifuged for 10 min at 2844×g. Supernatants (180 μL) were placed into a clean 96-well plate and evaporated under a nitrogen stream at 45° C. Residues were reconstituted in 80 μL of 20% acetonitrile (aq) containing 0.1% formic acid.
A […] aliquot of each plasma sample was diluted with […] of 10 mM ammonium acetate (pH 6.8) containing an appropriate internal standard and loaded onto an Oasis WCX microElution plate (Waters Corporation, Milford, MA) that had been pre-conditioned with […] of methanol and […] of deionized water. Samples were washed with […] of 5% ammonium hydroxide (aq) followed by […] of 20% acetonitrile in water. The analyte was eluted with […] of 5% formic acid in 75:25 acetonitrile:water. The eluent was dried under a nitrogen stream. Residues were reconstituted in 80 μL of 20% acetonitrile (aq) containing 0.1% formic acid.
All calibration standards were prepared in control rat plasma containing K2EDTA and protease inhibitor cocktail.
Samples and standards were analyzed by TurbolonSpray™ UPLC-MS/MS using a system consisting of a CTC HTS PAL auto-injector (Leap, Carrboro, NC), an Agilent Infinity 1290 system with column oven (Palo Alto, CA), a Valco switching valve (Houston, TX), and either an AB Sciex API 5600 TripleTOF™ or Sciex API 4000QTrap mass spectrometer (Framingham, MA). Samples were injected onto a 2.1×50 mm reverse phase C18 analytical column, typically a Waters CORTECS UPLC C18+, 1.6 μm (Waters Corporation, Milford, MA) or similar. […] Initial conditions consisted of 90% A and 10% B. The organic component was increased to 95% B over a period of 3-4 minutes, depending on the peptide. Typical flow rates were 600 μL/min. The column temperature was held constant at 40 or 50° C. Peptides were quantified by monitoring one or more product ions produced from a multiply charged parent ion.
The molecule `CCCCCCCCCCCCCCCC(=O)N[C@@H](CCC(=O)N[C@@H](CCC(=O)N[C@@H](CCC(=O)NCCCC[C@@H](NC(=O)[C@H](CCC(=O)O)NC(=O)[C@H](CC(N)=O)NC(=O)[C@H](C)NC(=O)[C@H](CC(C)C)NC(=O)[C@H](CCCNC(=N)N)NC(=O)[C@H](CCC(N)=O)NC(=O)[C@@H](NC(=O)[C@H](C)NC(=O)[C@@H]1CSSC[C@H](NC(=O)[C@@H](N)CO)C(=O)N[C@@H](CC(N)=O)C(=O)N[C@@H]([C@@H](C)O)C(=O)N[C@@H](CO)C(=O)N[C@@H]([C@@H](C)O)C(=O)N1)[C@@H](C)O)C(=O)N[C@@H](Cc1c[nH]cn1)C(=O)N[C@@H](CCCCN)C(=O)N[C@@H](CO)C(=O)N[C@@H](CO)C(=O)N[C@@H](CC(N)=O)C(=O)N[C@@H](CC(N)=O)C(=O)N[C@@H](Cc1ccccc1)C(=O)NCC(=O)N1CCC[C@H]1C(=O)N[C@H](C(=O)N[C@@H](CC(C)C)C(=O)N1CCC[C@H]1C(=O)N1CCC[C@H]1C(=O)N[C@H](C(=O)N[C@@H](CCCCN)C(=O)N[C@H](C(=O)NCC(=O)N[C@@H](CO)C(=O)N[C@@H](CCC(=O)O)C(=O)N[C@H](C(=O)N[C@@H](Cc1ccc(O)cc1)C(N)=O)[C@@H](C)O)C(C)C)[C@@H](C)O)[C@@H](C)CC)C(=O)O)C(=O)O)C(=O)O` [Compound A53] (H-SCNTSTCATQRLANE[dK]([γGlu-γGlu-γGlu-Palmitoyl])HKSSNNFGPILPPTKVGSETY-NH2; disulfide 2-7) showed a Vd of 0.174 L/kg, a clearance of 0.478 mL/min/kg and a half-life of 5.16 h.
On the same counts, the results for `CCCCCCCCCCCCCCCCCCCCCC(=O)N[C@@H](CCC(=O)N[C@@H](CCC(=O)NCCCC[C@@H](NC(=O)[C@H](CCC(=O)O)NC(=O)[C@H](CC(N)=O)NC(=O)[C@H](C)NC(=O)[C@H](CC(C)C)NC(=O)[C@H](CCCNC(=N)N)NC(=O)[C@H](CCC(N)=O)NC(=O)[C@@H](NC(=O)[C@H](C)NC(=O)[C@@H]1CSSC[C@H](NC(=O)[C@@H](N)CO)C(=O)N[C@@H](CC(N)=O)C(=O)N[C@@H]([C@@H](C)O)C(=O)N[C@@H](CO)C(=O)N[C@@H]([C@@H](C)O)C(=O)N1)[C@@H](C)O)C(=O)N[C@@H](Cc1c[nH]cn1)C(=O)N[C@@H](CCCCN)C(=O)N[C@@H](CO)C(=O)N[C@@H](CO)C(=O)N[C@@H](CC(N)=O)C(=O)N[C@@H](CC(N)=O)C(=O)N[C@@H](Cc1ccccc1)C(=O)NCC(=O)N1CCC[C@H]1C(=O)N[C@H](C(=O)N[C@@H](CC(C)C)C(=O)N1CCC[C@H]1C(=O)N1CCC[C@H]1C(=O)N[C@H](C(=O)N[C@@H](CCCCN)C(=O)N[C@H](C(=O)NCC(=O)N[C@@H](CO)C(=O)N[C@@H](CCC(=O)O)C(=O)N[C@H](C(=O)N[C@@H](Cc1ccc(O)cc1)C(N)=O)[C@@H](C)O)C(C)C)[C@@H](C)O)[C@@H](C)CC)C(=O)O)C(=O)O` [Compound A124] (H-SCNTSTCATQRLANE[dK]([γGlu-γGlu-Docosanoyl])HKSSNNFGPILPPTKVGSETY-NH2; disulfide 2-7) are 0.273 L/kg, 1.72 mL/min/kg and 2.14 h.
On to `CCCCCCCCCCCCCCCC(=O)N[C@@H](CCC(=O)NCCCC[C@@H](NC(=O)[C@H](CCC(=O)O)NC(=O)[C@H](CC(N)=O)NC(=O)[C@H](C)NC(=O)[C@H](CC(C)C)NC(=O)[C@H](CCCNC(=N)N)NC(=O)[C@H](CCC(N)=O)NC(=O)[C@@H](NC(=O)[C@H](C)NC(=O)[C@@H]1CSSC[C@H](NC(=O)[C@@H](N)CO)C(=O)N[C@@H](CC(N)=O)C(=O)N[C@@H]([C@@H](C)O)C(=O)N[C@@H](CO)C(=O)N[C@@H]([C@@H](C)O)C(=O)N1)[C@@H](C)O)C(=O)N[C@@H](Cc1c[nH]cn1)C(=O)N[C@@H](CCCCN)C(=O)N[C@@H](CO)C(=O)N[C@@H](CO)C(=O)N[C@@H](CC(N)=O)C(=O)N[C@@H](CC(N)=O)C(=O)N[C@@H](Cc1ccccc1)C(=O)NCC(=O)N1CCC[C@H]1C(=O)N[C@H](C(=O)N[C@@H](CC(C)C)C(=O)N1CCC[C@H]1C(=O)N1CCC[C@H]1C(=O)N[C@H](C(=O)N[C@@H](CCCCN)C(=O)N[C@H](C(=O)NCC(=O)N[C@@H](CO)C(=O)N[C@@H](CCC(=O)O)C(=O)N[C@H](C(=O)N[C@@H](Cc1ccc(O)cc1)C(N)=O)[C@@H](C)O)C(C)C)[C@@H](C)O)[C@@H](C)CC)C(=O)O` [Compound A36] (H-SCNTSTCATQRLANE[dK]([γGlu-Palmitoyl])HKSSNNFGPILPPTKVGSETY-NH2; disulfide 2-7), for which the volume of distribution (Vd) came out at 0.244 L/kg, the clearance is 3.93 mL/min/kg and the half-life was 1.32 h.
On the same counts, the results for `CCCCCCCCCCCCCCCC(=O)N[C@@H](CCC(=O)NCCCC[C@H](NC(=O)[C@@H]1CSSC[C@H](NC(=O)[C@@H](N)CO)C(=O)N[C@@H](CC(N)=O)C(=O)N[C@@H]([C@@H](C)O)C(=O)N[C@@H](CO)C(=O)N[C@@H]([C@@H](C)O)C(=O)N1)C(=O)N[C@H](C(=O)N[C@@H](CCC(N)=O)C(=O)N[C@@H](CCCNC(=N)N)C(=O)N[C@@H](CC(C)C)C(=O)N[C@@H](C)C(=O)N[C@@H](CC(N)=O)C(=O)N[C@@H](CCC(=O)O)C(=O)N[C@@H](CC(C)C)C(=O)N[C@@H](Cc1c[nH]cn1)C(=O)N[C@@H](CCCCN)C(=O)N[C@@H](CO)C(=O)N[C@@H](CO)C(=O)N[C@@H](CC(N)=O)C(=O)N[C@@H](CC(N)=O)C(=O)N[C@@H](Cc1ccccc1)C(=O)NCC(=O)N1CCC[C@H]1C(=O)N[C@H](C(=O)N[C@@H](CC(C)C)C(=O)N1CCC[C@H]1C(=O)N1CCC[C@H]1C(=O)N[C@H](C(=O)N[C@@H](CCCCN)C(=O)N[C@H](C(=O)NCC(=O)N[C@@H](CO)C(=O)N[C@@H](CCC(=O)O)C(=O)N[C@H](C(=O)N[C@@H](Cc1ccc(O)cc1)C(N)=O)[C@@H](C)O)C(C)C)[C@@H](C)O)[C@@H](C)CC)[C@@H](C)O)C(=O)O` [Compound A108] (H-SCNTSTCK([γGlu-Palmitoyl])TQRLANELHKSSNNFGPILPPTKVGSETY-NH2; disulfide 2-7) are 0.396 L/kg, 6.45 mL/min/kg and 1.01 h.
On the same counts, the results for `CCCCCCCCCCCCCCCC(=O)NCC(=O)N[C@@H](CCC(=O)N[C@@H](CCC(=O)NCCCC[C@@H](NC(=O)[C@H](CCC(=O)O)NC(=O)[C@H](CC(N)=O)NC(=O)[C@H](C)NC(=O)[C@H](CC(C)C)NC(=O)[C@H](CCCNC(=N)N)NC(=O)[C@H](CCC(N)=O)NC(=O)[C@@H](NC(=O)[C@H](C)NC(=O)[C@@H]1CSSC[C@H](NC(=O)[C@@H](N)CO)C(=O)N[C@@H](CC(N)=O)C(=O)N[C@@H]([C@@H](C)O)C(=O)N[C@@H](CO)C(=O)N[C@@H]([C@@H](C)O)C(=O)N1)[C@@H](C)O)C(=O)N[C@@H](Cc1c[nH]cn1)C(=O)N[C@@H](CCCCN)C(=O)N[C@@H](CO)C(=O)N[C@@H](CO)C(=O)N[C@@H](CC(N)=O)C(=O)N[C@@H](CC(N)=O)C(=O)N[C@@H](Cc1ccccc1)C(=O)NCC(=O)N1CCC[C@H]1C(=O)N[C@H](C(=O)N[C@@H](CC(C)C)C(=O)N1CCC[C@H]1C(=O)N1CCC[C@H]1C(=O)N[C@H](C(=O)N[C@@H](CCCCN)C(=O)N[C@H](C(=O)NCC(=O)N[C@@H](CO)C(=O)N[C@@H](CCC(=O)O)C(=O)N[C@H](C(=O)N[C@@H](Cc1ccc(O)cc1)C(N)=O)[C@@H](C)O)C(C)C)[C@@H](C)O)[C@@H](C)CC)C(=O)O)C(=O)O` [Compound A39] (H-SCNTSTCATQRLANE[dK]([γGlu-γGlu-Gly-Palmitoyl])HKSSNNFGPILPPTKVGSETY-NH2; disulfide 2-7) are 0.502 L/kg, 1.35 mL/min/kg and 4.85 h.

Source of the values: patent US12018059B2, “Human amylin analog polypeptides and methods of use” (Intarcia Therapeutics, Inc., priority 2018, dated 2024).
